This is an account of results in the supplement of paper PMC10307832.

Common to all, as to assay: relative viability (nuclei count vs DMSO), 5 days (fraction); higher = more cells survive
Compound in the experiment “Linsitinib + Palbociclib”: C[C@]1(O)C[C@@H](c2nc(-c3ccc4ccc(-c5ccccc5)nc4c3)c3c(N)nccn32)C1 [Linsitinib] + CC(=O)c1c(C)c2cnc(Nc3ccc(N4CCNCC4)cn3)nc2n(C2CCCC2)c1=O [Palbociclib] (partner 0.5 µM)
The essentials:
(§1)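 Lung cancer cell lines, seeded in 1536-well plates, were treated the following day by pin tool with a single drug or with five library-drug doses (not always all listed) in √10 steps on top of a fixed anchor-drug dose. Cells were fixed and nuclei stained in one step after 5 days, and nuclei were counted. Relative viability is the nuclei count for treated wells divided by that for vehicle wells, reported as medians of duplicate plates.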

Compound in the experiment “Ispinesib + Luminespib”: Cc1ccc(C(=O)N(CCCN)[C@@H](c2nc3cc(Cl)ccc3c(=O)n2Cc2ccccc2)C(C)C)cc1 [Ispinesib] + CCNC(=O)c1noc(-c2cc(C(C)C)c(O)cc2O)c1-c1ccc(CN2CCOCC2)cc1 [Luminespib] (partner 0.01 µM)
The procedure, abridged:
as §1

Compound in the experiment “Ispinesib + Foretinib”: Cc1ccc(C(=O)N(CCCN)[C@@H](c2nc3cc(Cl)ccc3c(=O)n2Cc2ccccc2)C(C)C)cc1 [Ispinesib] + COc1cc2c(Oc3ccc(NC(=O)C4(C(=O)Nc5ccc(F)cc5)CC4)cc3F)ccnc2cc1OCCCN1CCOCC1 [Foretinib] (partner 0.25 µM)
The procedure, abridged: as §1

Compound in the experiment “Ispinesib + Decitabine”: Cc1ccc(C(=O)N(CCCN)[C@@H](c2nc3cc(Cl)ccc3c(=O)n2Cc2ccccc2)C(C)C)cc1 [Ispinesib] + Nc1ncn([C@H]2C[C@H](O)[C@@H](CO)O2)c(=O)n1 [Decitabine] (partner 2 µM)
The essentials:
as §1

NCI-H1437: the relative viability with Linsitinib + Palbociclib (first compound 0.01 µM) was found to be 0.291; with Linsitinib + Palbociclib (first compound 0.03162 µM), 0.33; with Linsitinib + Palbociclib (first compound 0.1 µM), 0.321; with Linsitinib + Palbociclib (first compound 0.3162 µM), 0.276; with Linsitinib + Palbociclib (first compound 1 µM), 0.346; with Ispinesib + Luminespib (first compound 0.001 µM), 1.16. Moreover, the relative viability worked out at 1.22 with Ispinesib + Luminespib (first compound 0.003162 µM); 1.26 in the experiment with Ispinesib + Luminespib (first compound 0.01 µM); 1.22 with Ispinesib + Luminespib (first compound 0.03162 µM); 0.994 with Ispinesib + Luminespib (first compound 0.1 µM); 1.3 with Ispinesib + Foretinib (first compound 0.001 µM); 1.39 with Ispinesib + Foretinib (first compound 0.003162 µM). The relative viability is 1.39 with Ispinesib + Foretinib (first compound 0.01 µM); 1.27 in the experiment with Ispinesib + Foretinib (first compound 0.03162 µM); 0.748 with Ispinesib + Foretinib (first compound 0.1 µM); 0.552 with Ispinesib + Decitabine (first compound 0.001 µM); 0.605 with Ispinesib + Decitabine (first compound 0.003162 µM); 0.677 in the experiment with Ispinesib + Decitabine (first compound 0.01 µM). The figures for the relative viability with Ispinesib + Decitabine (first compound 0.03162 µM) and in the experiment with Ispinesib + Decitabine (first compound 0.1 µM) were 0.652 and 0.228, respectively.
With NCI-H1650, the relative viability was found to be 0.399 with Linsitinib + Palbociclib (first compound 0.01 µM); 0.299 with Linsitinib + Palbociclib (first compound 0.03162 µM); 0.305 with Linsitinib + Palbociclib (first compound 0.1 µM); 0.246 with Linsitinib + Palbociclib (first compound 0.3162 µM); 0.253 in the experiment with Linsitinib + Palbociclib (first compound 1 µM); 0.182 in the experiment with Ispinesib + Luminespib (first compound 0.001 µM). For the same cell line, the relative viability with Ispinesib + Luminespib (first compound 0.003162 µM) is 0.185; in the experiment with Ispinesib + Luminespib (first compound 0.01 µM) it was 0.217; with Ispinesib + Luminespib (first compound 0.03162 µM), 0.181; with Ispinesib + Luminespib (first compound 0.1 µM), 0.198; with Ispinesib + Foretinib (first compound 0.001 µM), 1.27; with Ispinesib + Foretinib (first compound 0.003162 µM), 1.44. For the same cell line, the relative viability amounted to 1.12 with Ispinesib + Foretinib (first compound 0.01 µM); 0.305 with Ispinesib + Foretinib (first compound 0.03162 µM); 0.273 with Ispinesib + Foretinib (first compound 0.1 µM); 0.527 in the experiment with Ispinesib + Decitabine (first compound 0.001 µM); 0.448 with Ispinesib + Decitabine (first compound 0.003162 µM); 0.45 in the experiment with Ispinesib + Decitabine (first compound 0.01 µM). For the same cell line, the relative viability came to 0.331 in the experiment with Ispinesib + Decitabine (first compound 0.03162 µM) and 0.185 in the experiment with Ispinesib + Decitabine (first compound 0.1 µM).
Regarding NCI-H1651, the relative viability worked out at 0.543 with Linsitinib + Palbociclib (first compound 0.01 µM); 0.525 in the experiment with Linsitinib + Palbociclib (first compound 0.03162 µM); 0.494 with Linsitinib + Palbociclib (first compound 0.1 µM); 0.486 with Linsitinib + Palbociclib (first compound 0.3162 µM); 0.489 with Linsitinib + Palbociclib (first compound 1 µM); 0.989 with Ispinesib + Luminespib (first compound 0.001 µM). Also, the relative viability was 0.88 with Ispinesib + Luminespib (first compound 0.003162 µM); 0.859 in the experiment with Ispinesib + Luminespib (first compound 0.01 µM); 1.23 with Ispinesib + Luminespib (first compound 0.03162 µM); 0.404 in the experiment with Ispinesib + Luminespib (first compound 0.1 µM); 0.973 in the experiment with Ispinesib + Foretinib (first compound 0.001 µM); 0.768 in the experiment with Ispinesib + Foretinib (first compound 0.003162 µM). The relative viability with Ispinesib + Foretinib (first compound 0.01 µM) is 1.01; with Ispinesib + Foretinib (first compound 0.03162 µM) it was 0.561; in the experiment with Ispinesib + Foretinib (first compound 0.1 µM), 0.147; with Ispinesib + Decitabine (first compound 0.001 µM) it was 0.582; with Ispinesib + Decitabine (first compound 0.003162 µM), 0.688; with Ispinesib + Decitabine (first compound 0.01 µM) it was 0.67. The relative viability with Ispinesib + Decitabine (first compound 0.03162 µM) is 0.559; with Ispinesib + Decitabine (first compound 0.1 µM) it was 0.508.
Turning to NCI-H1666, the relative viability with Linsitinib + Palbociclib (first compound 0.01 µM) was found to be 0.626; with Linsitinib + Palbociclib (first compound 0.03162 µM), 0.565; in the experiment with Linsitinib + Palbociclib (first compound 0.1 µM), 0.656; in the experiment with Linsitinib + Palbociclib (first compound 0.3162 µM) it was 0.526; with Linsitinib + Palbociclib (first compound 1 µM) it was 0.604; in the experiment with Ispinesib + Luminespib (first compound 0.001 µM), 1. In addition, the relative viability amounted to 0.973 with Ispinesib + Luminespib (first compound 0.003162 µM); 0.946 in the experiment with Ispinesib + Luminespib (first compound 0.01 µM); 0.887 with Ispinesib + Luminespib (first compound 0.03162 µM); 0.501 with Ispinesib + Luminespib (first compound 0.1 µM); 1.03 with Ispinesib + Foretinib (first compound 0.001 µM); 0.989 in the experiment with Ispinesib + Foretinib (first compound 0.003162 µM). The relative viability was 0.903 with Ispinesib + Foretinib (first compound 0.01 µM); 0.918 with Ispinesib + Foretinib (first compound 0.03162 µM); 0.539 in the experiment with Ispinesib + Foretinib (first compound 0.1 µM); 0.638 with Ispinesib + Decitabine (first compound 0.001 µM); 0.795 with Ispinesib + Decitabine (first compound 0.003162 µM); 0.779 in the experiment with Ispinesib + Decitabine (first compound 0.01 µM). Besides, the relative viability with Ispinesib + Decitabine (first compound 0.03162 µM) stood at 0.656; with Ispinesib + Decitabine (first compound 0.1 µM), 0.625.
